The target in series [1] is T1, Bst DNA polymerase (Geobacillus stearothermophilus, UniProt P52026).
T1 construct: purchased New England Biolabs
T1 sequence (P52026 290-876 limits assumed): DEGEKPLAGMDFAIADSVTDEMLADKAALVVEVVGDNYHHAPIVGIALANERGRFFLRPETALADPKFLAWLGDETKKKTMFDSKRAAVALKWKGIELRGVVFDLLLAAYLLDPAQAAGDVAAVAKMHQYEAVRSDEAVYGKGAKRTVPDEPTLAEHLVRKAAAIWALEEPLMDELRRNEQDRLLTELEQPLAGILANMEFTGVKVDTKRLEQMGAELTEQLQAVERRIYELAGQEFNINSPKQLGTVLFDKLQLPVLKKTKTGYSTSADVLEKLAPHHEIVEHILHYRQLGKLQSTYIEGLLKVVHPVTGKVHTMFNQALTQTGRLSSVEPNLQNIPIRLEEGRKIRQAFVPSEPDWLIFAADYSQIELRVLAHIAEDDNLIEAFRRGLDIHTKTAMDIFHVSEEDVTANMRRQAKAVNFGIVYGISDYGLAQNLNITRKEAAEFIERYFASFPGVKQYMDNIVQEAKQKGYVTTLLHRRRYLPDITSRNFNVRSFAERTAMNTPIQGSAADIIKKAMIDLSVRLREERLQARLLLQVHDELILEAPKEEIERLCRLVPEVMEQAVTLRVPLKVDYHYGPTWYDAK
Kind of series: Single nucleotide extension of 6-mer primers at varying dNTP concentration. The format is biochemical. As to conditions: for extension efficiency of 6-mer primer compared with natural dNTP: dNTP 0.5 microM to 130 microM, 45° C., 8 hours. Here is the method: To further assess the incorporation efficiency of the modified nucleotides by Bst DNA polymerase, the efficiency for a single nucleotide extension reaction was determined using two 6-mer primers in the presence of varying concentrations of dATP, 2-amino-2′-deoxyadenosine-5′-triphosphate, dTTP or 2-thiothymidine-5′-triphosphate (illustrated as 2-thioTTP) (FIGS. 3A and 4A). For this study, the reaction mixtures contained: 20 mM Tris-Cl (pH 8.8 @ 25° C.), 10 mM KCl, 10 mM (NH4)2SO4, 2 mM MgSO4, 0.1% Triton-X100, 500 nanoM 6-mer primer, 20 nanoM 30-mer DNA template, 0.8 units/microL (˜70 nanoM) Bst DNA polymerase and a dNTP concentration ranging from 0.5 microM to 130 microM. The reaction mixtures were incubated at 45° C. for 8 hours and separated by electrophoresis on 20% denaturing (7M urea) polyacrylamide gels.

Series [2] addresses T2, T7 RNA polymerase (Escherichia phage T7, UniProt P00573).
T2 construct: purchased Ambion Inc
Kind of series: Transcription of ribo-UNA from linearized DNA template. As to conditions: substituted for ATP and UTP; 37° C., one hour. It is filed as biochemical. Here is the method: The ability to transcribe longer ribo-UNAs (rUNAs) using T7 RNA polymerase and the corresponding modified ribonucleotide triphosphates was tested using a linear double-stranded DNA template. A plasmid DNA containing the human retinoblastoma gene under control of a T7 RNA polymerase promoter was digested with the restriction endonucleases XbaI and AflII. The resulting linearized plasmid templates for a 138 nucleotide transcript when transcribed with T7 RNA polymerase (see FIG. 34A).
The transcription reactions (20 uL) contained 1× transcription buffer (Ambion Inc.), 0.5 mM GTP, 0.5 mM ATP (or 2-aminoadenosine-5′-triphosphate (rD)), 0.5 mM UTP (or 2-thiouridine-5′-triphosphate (rS), 1.6 uM α-^32P-CTP, 1 ug of the linearized DNA template and 10 units of T7 RNA polymerase (Ambion Inc.). The reaction mixtures were incubated at 37° C. for one hour and then separated by electrophoresis on a 6%/7M urea polyacrylamide gel.

The conditions of series [3]: 28-mer duplexes; cited from earlier work.
Series [4] concerns the target T3, SuperScript II MMLV reverse transcriptase (Moloney murine leukemia virus, UniProt P03355, D1183G/D1242N/E1221Q).
T3 construct: 200 units of SuperScript II MMLV reverse transcriptase (InVitrogen); purchased InVitrogen
Kind of series: Synthesis of full-length cUNA from polyadenylated T7-RNA transcripts. It is filed as biochemical. As to conditions: additional substitution for GTP; relative to natural dNTP or D/S substituted reactions. The method, then: The ability to synthesize full-length UNA copies (cUNAs) of polyadenylated RNA was tested using various reverse transcriptase enzymes and three T7-RNA transcripts having 3′-polyadenylated tails as templates. The three T7-RNA transcripts correspond to the genes for the penicillin binding protein from E. coli (pBp-1), the chlorophyll A/B binding protein from Arabidopsis thaliana (Cab), and nucleotides 5-335 of the Hepatitis C virus (HCV) genome (See FIG. 32 (panel A)). The expected length of the cUNAs generated from the three polyadenylated RNAs using an oligo-dT primer is 1194, 729 and 360 nucleotides respectively (see FIG. 32 (panel B)).
The reverse transcriptase reactions (15.0 uL) were performed in 0.65 mL pre-siliconized microfuge tubes containing the following components: 50 mM Tris-Cl (pH 8.3), 75 mM KCl, 3.0 mM MgCl2, 4.5 mM DTT, 500 uM dGTP (or dITP), 500 uM dATP (or 2-amino-2′-deoxyadenosine-5′-triphosphate), 500 uM TTP (or 2-thiothymidine-5′-triphosphate), 100 uM dCTP, 0.33 uCi of ^32P-α-dCTP, 20 nM each T7-RNA template, 1.0 uM T16N2 primer, 1.0 unit of RNase Out (In Vitrogen), and 200 units of SuperScript II MMLV reverse transcriptase (InVitrogen). The buffer components, RNA template and primer were annealed by heating to 75° C. for 4 minutes and quickly cooled to room temperature. […]

For series [5], the target named is T4, Bst DNA polymerase (Geobacillus stearothermophilus, UniProt P52026).
T4 sequence (P52026 1-876): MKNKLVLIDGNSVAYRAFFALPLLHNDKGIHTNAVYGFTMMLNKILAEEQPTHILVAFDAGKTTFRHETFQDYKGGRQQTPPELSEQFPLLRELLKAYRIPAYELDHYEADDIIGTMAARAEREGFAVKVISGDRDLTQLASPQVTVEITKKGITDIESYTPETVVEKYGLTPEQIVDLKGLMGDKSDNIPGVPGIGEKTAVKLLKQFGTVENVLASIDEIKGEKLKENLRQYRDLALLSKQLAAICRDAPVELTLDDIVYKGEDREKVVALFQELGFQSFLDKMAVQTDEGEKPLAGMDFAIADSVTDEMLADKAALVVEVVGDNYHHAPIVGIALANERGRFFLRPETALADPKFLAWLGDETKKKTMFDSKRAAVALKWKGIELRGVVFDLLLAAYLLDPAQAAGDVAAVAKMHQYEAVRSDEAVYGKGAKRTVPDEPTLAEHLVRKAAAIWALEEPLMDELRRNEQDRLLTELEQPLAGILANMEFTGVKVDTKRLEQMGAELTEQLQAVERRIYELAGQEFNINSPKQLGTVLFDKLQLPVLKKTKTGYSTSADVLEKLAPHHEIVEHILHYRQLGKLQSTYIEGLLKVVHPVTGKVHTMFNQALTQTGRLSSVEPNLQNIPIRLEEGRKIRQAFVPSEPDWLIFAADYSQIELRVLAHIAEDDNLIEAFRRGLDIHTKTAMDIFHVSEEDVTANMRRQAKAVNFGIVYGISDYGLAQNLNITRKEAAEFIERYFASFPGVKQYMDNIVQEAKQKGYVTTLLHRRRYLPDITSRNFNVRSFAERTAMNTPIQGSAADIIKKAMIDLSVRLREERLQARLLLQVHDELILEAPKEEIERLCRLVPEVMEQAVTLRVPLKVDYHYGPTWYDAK
The series can be described thus: Incorporation specificity of 2-thio-2′-deoxycytidine triphosphate opposite template G or I. It is filed as biochemical. To be noted: 5.0 uM dNTP, 45° C.; for primer extension rate: template I. The method, then: The reactions were incubated at 45° C. At 5, 10, 20 and 40 minutes, 7.0 uL aliquots were removed and the reaction mixture was separated by electrophoresis on 20%/7M urea polyacrylamide gels. The products were visualized by phosphorimaging.

In general, EC50 refers to the concentration giving half of the maximal effect. Low readings indicate greater potency, high ones weaker potency.

T2 sequence (P00573 whole entry): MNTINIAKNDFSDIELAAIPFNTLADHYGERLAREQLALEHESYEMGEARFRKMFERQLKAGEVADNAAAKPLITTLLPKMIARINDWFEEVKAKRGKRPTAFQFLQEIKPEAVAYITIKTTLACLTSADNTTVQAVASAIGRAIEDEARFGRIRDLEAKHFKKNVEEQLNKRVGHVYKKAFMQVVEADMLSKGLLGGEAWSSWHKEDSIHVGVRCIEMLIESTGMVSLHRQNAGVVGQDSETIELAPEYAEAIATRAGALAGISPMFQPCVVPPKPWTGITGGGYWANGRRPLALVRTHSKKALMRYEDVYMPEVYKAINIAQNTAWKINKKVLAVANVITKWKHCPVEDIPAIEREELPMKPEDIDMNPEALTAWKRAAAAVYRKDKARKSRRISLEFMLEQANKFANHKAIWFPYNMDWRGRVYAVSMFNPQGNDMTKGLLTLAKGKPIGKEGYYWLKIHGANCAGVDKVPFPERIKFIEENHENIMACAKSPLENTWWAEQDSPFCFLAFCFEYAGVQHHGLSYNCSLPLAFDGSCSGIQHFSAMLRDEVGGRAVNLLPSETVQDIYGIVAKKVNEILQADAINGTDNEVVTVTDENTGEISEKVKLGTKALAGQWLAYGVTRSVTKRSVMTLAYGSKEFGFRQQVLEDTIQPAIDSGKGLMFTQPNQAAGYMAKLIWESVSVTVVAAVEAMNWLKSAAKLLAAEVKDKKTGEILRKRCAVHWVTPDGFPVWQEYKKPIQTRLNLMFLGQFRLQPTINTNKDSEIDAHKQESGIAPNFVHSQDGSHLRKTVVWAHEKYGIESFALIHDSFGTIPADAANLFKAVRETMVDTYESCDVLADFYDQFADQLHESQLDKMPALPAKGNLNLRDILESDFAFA

With `Nc1ncnc2c1ncn2[C@H]1C[C@H](O)[C@@H](COP(=O)(O)OP(=O)(O)OP(=O)(O)O)O1` [dATP, 2′-deoxyadenosine-5′-triphosphate, reference compound], the “extension efficiency of 6-mer primer compared with natural dNTP” value in series [1] was “approximately equal efficiencies”.

In the case of `Nc1nc(N)c2ncn([C@@H]3O[C@H](COP(=O)(O)OP(=O)(O)OP(=O)(O)O)[C@@H](O)[C@H]3O)c2n1` [2-aminoadenosine-5′-triphosphate], the “full-length product (138 nucleotide transcript)” value in series [2] is recorded as “full-length product is generated”. With `OC[C@H]1O[C@@H](n2cnc3c(O)ncnc32)[C@H](O)[C@@H]1O` [I, inosine], the “change of duplex Tm per modified base pair” value in series [3] was −1.9 °C. For `O=P(O)(O)OP(=O)(O)OP(=O)(O)OC[C@H]1O[C@@H](n2cnc3c(O)ncnc32)C[C@@H]1O` [ITP, 2′-deoxyinosine-5′-triphosphate], the “reduction of yield of full-length product” value in series [4] is recorded as “about 2 fold”.

`Nc1ccn([C@H]2C[C@H](O)[C@@H](COP(=O)(O)OP(=O)(O)OP(=O)(O)O)O2)c(=O)n1` [dCTP, 2′-deoxycytidine-5′-triphosphate, reference compound]: the “conversion of the 12-mer primer to the 13-mer extension product” value in series [5] (template G) is listed as “efficient conversion”. For the same molecule, in series [5], the primer extension rate entry is given as “equivalent”. Take `O=c1ccn([C@@H]2O[C@H](COP(=O)(O)OP(=O)(O)OP(=O)(O)O)[C@@H](O)[C@H]2O)c(=S)[nH]1` [2-thiouridine-5′-triphosphate]: the “full-length product (138 nucleotide transcript)” value in series [2] was “full-length product is generated”. On to `c1cc2[nH]cncc-2n1` [P, pyrrolo-pyrimidine], for which the “change of duplex Tm per modified base pair” value in series [3] is −0.5 °C.

On to `Nc1ccn([C@H]2C[C@H](O)[C@@H](COP(=O)(O)OP(=O)(O)OP(=O)(O)O)O2)c(=S)n1` [2-thio-2′-deoxycytidine triphosphate, 2-thio-2′-deoxycytidine-5′-triphosphate], for which, in series [5], the primer extension rate result is “equivalent”. In the case of `Cc1cn([C@H]2C[C@H](O)[C@@H](COP(=O)(O)OP(=O)(O)OP(=O)(O)O)O2)c(=O)[nH]c1=O` [dTTP, 2′-deoxythymidine-5′-triphosphate, reference compound], in series [1], the EC50 was roughly 4 µM and the “extension efficiency of 6-mer primer compared with natural dNTP” value is reported as “very similar”.

The values are drawn from patent US20040086880A1, “Method of producing nucleic acid molecules with reduced secondary structure” (priority 1999, published 2004).
